Reference: patent publication US20100292255A1, “Therapeutic Compounds and Their Use in Treating Diseases and Disorders” (Myriad Pharmaceuticals, Inc., priority 2007, published 2010)

System: T1, purified human Hsp90
T1 construct: purified human Hsp90 (Stressgen, SPP-770)
Experiment: Hsp90 binding assay: displacement of BODIPY-labeled geldanamycin measured by fluorescence polarization
Settings: 5 μM compound; BODIPY-GM 10 nM, Hsp90 30 nM, overnight at room temperature
Procedure, shortened: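 Purified human Hsp90 at 30 nM and 10 nM BODIPY-GM tracer were incubated overnight at room temperature with compound in 2% DMSO. The buffer was 20 mM HEPES-KOH pH 7.3, 50 mM KCl, 5 mM MgCl2, 20 mM Na2MoO4, 2 mM DTT. Background-subtracted mP values read at 485/530 nm were normalized to DMSO wells to give % inhibition.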

| GM displacement from purified Hsp90 measured by FP Inhibition by 5 μM compd. (%) | SMILES |
| --- | --- |
| 55.0 | CC(C)C(=O)N1CCC(CCn2cnc(N)c3nc(Sc4cc5c(cc4Br)OCO5)nc2-3)CC1 [compound 26, 8-[(6-Bromo-1,3-benzodioxol-5-yl)thio]-3-[2-(1-isobutyrylpiperidin-4-yl)ethyl]-3H-purin-6-amine] |
| 40.0 | CCN(CC)C(=O)CN1CCC(CCn2cnc(N)c3nc(Sc4cc5c(cc4Br)OCCO5)nc2-3)CC1 [compound 28, 2-[4-(2-{6-Amino-8-[(7-bromo-2,3-dihydro-1,4-benzodioxin-6-yl)thio]-3H-purin-3-yl}ethyl)piperidin-1-yl]-N,N-diethylacetamide] |
| 23.0 | Nc1ncn(CCn2c(=O)n3n(c2=O)CC=CC3)c2nc(Sc3cc4c(cc3Br)OCO4)nc1-2 [compound 30, 2-(2-{6-Amino-8-[(6-bromo-1,3-benzodioxol-5-yl)thio]-3H-purin-3-yl}ethyl)-5,8-dihydro-1H-[1,2,4]triazolo[1,2-a]pyridazine-1,3(2H)-dione] |
| 9.0 | N#CCCN1CCC(CCn2cnc(N)c3nc(Sc4cc5c(cc4Br)OCO5)nc2-3)CC1 [compound 32] |
| 88.0 | COCC(=O)N1CCC(CCn2cnc(N)c3nc(Sc4cc5c(cc4C#N)OCO5)nc2-3)CC1 [compound 34, 6-[(6-Amino-3-{2-[1-(methoxyacetyl)piperidin-4-yl]ethyl}-3H-purin-8-yl)thio]-1,3-benzodioxole-5-carbonitrile] |
| 35.0 | CO[C@H](C)C(=O)N1CCC(CCn2cnc(N)c3nc(Sc4cc5c(cc4C#N)OCO5)nc2-3)CC1 [compound 36, 6-{[6-Amino-3-(2-{1-[(2R)-2-methoxypropanoyl]piperidin-4-yl}ethyl)-3H-purin-8-yl]thio}-1,3-benzodioxole-5-carbonitrile] |
| 36.0 | CO[C@@H](C)C(=O)N1CCC(CCn2cnc(N)c3nc(Sc4cc5c(cc4C#N)OCO5)nc2-3)CC1 [compound 38, 6-{[6-Amino-3-(2-{1-[(2S)-2-methoxypropanoyl]piperidin-4-yl}ethyl)-3H-purin-8-yl]thio}-1,3-benzodioxole-5-carbonitrile] |
| 33.0 | N#Cc1cc2c(cc1Sc1nc3c(N)ncn(CCC4CCN(C(=O)C5CC5(F)F)CC4)c-3n1)OCO2 (centres unmarked) [compound 40, 6-{[6-Amino-3-(2-{1-[(2,2-difluorocyclopropyl)carbonyl]piperidin-4-yl}ethyl)-3H-purin-8-yl]thio}-1,3-benzodioxole-5-carbonitrile] |

Same assay, conditions: BODIPY-GM 10 nM, Hsp90 30 nM, overnight at room temperature; read-out: GM displacement from purified Hsp90 measured by FP IC 50

| SMILES | IC50 [nM] |
| --- | --- |
| CC(C)C(=O)N1CCC(CCn2c(Sc3cc4c(cc3Br)OCO4)nc3c(N)ncnc32)CC1 [compound 25, 8-[(6-Bromo-1,3-benzodioxol-5-yl)thio]-9-[2-(1-isobutyrylpiperidin-4-yl)ethyl]-9H-purin-6-amine] | 110 |
| CCN(CC)C(=O)CN1CCC(CCn2c(Sc3cc4c(cc3Br)OCCO4)nc3c(N)ncnc32)CC1 [compound 27, 2-[4-(2-{6-Amino-8-[(7-bromo-2,3-dihydro-1,4-benzodioxin-6-yl)thio]-9H-purin-9-yl}ethyl)piperidin-1-yl]-N,N-diethylacetamide] | 110 |
| Nc1ncnc2c1nc(Sc1cc3c(cc1Br)OCO3)n2CCn1c(=O)n2n(c1=O)CC=CC2 [compound 29, 2-(2-{6-Amino-8-[(6-bromo-1,3-benzodioxol-5-yl)thio]-9H-purin-9-yl}ethyl)-5,8-dihydro-1H-[1,2,4]triazolo[1,2-a]pyridazine-1,3(2H)-dione] | 1800 |
| Nc1ncnc2c1nc(Sc1cc3c(cc1Br)OCO3)n2CCCn1c(=O)n2n(c1=O)CC=CC2 [compound 31] | 900 |
| COCC(=O)N1CCC(CCn2c(Sc3cc4c(cc3C#N)OCO4)nc3c(N)ncnc32)CC1 [compound 33, 6-[(6-Amino-9-{2-[1-(methoxyacetyl)piperidin-4-yl]ethyl}-9H-purin-8-yl)thio]-1,3-benzodioxole-5-carbonitrile] | 300 |
| CO[C@H](C)C(=O)N1CCC(CCn2c(Sc3cc4c(cc3C#N)OCO4)nc3c(N)ncnc32)CC1 [compound 35, 6-{[6-Amino-9-(2-{1-[(2R)-2-methoxypropanoyl]piperidin-4-yl}ethyl)-9H-purin-8-yl]thio}-1,3-benzodioxole-5-carbonitrile] | 500 |
| CO[C@@H](C)C(=O)N1CCC(CCn2c(Sc3cc4c(cc3C#N)OCO4)nc3c(N)ncnc32)CC1 [compound 37, 6-{[6-Amino-9-(2-{1-[(2S)-2-methoxypropanoyl]piperidin-4-yl}ethyl)-9H-purin-8-yl]thio}-1,3-benzodioxole-5-carbonitrile] | 550 |
| N#Cc1cc2c(cc1Sc1nc3c(N)ncnc3n1CCC1CCN(C(=O)C3CC3(F)F)CC1)OCO2 (centres unmarked) [compound 39, 6-{[6-Amino-9-(2-{1-[(2,2-difluorocyclopropyl)carbonyl]piperidin-4-yl}ethyl)-9H-purin-8-yl]thio}-1,3-benzodioxole-5-carbonitrile] | 200 |

Continued, values first:

| IC50 [nM] | SMILES |
| --- | --- |
| 480 | COCCC(=O)N1CCC(CCn2c(Sc3cc4c(cc3C#N)OCO4)nc3c(N)ncnc32)CC1 [compound 41, 6-[(6-Amino-9-{2-[1-(3-methoxypropanoyl)piperidin-4-yl]ethyl}-9H-purin-8-yl)thio]-1,3-benzodioxole-5-carbonitrile] |
| 500 | COCCOCC(=O)N1CCC(CCn2c(Sc3cc4c(cc3C#N)OCO4)nc3c(N)ncnc32)CC1 [compound 42, 6-{[6-Amino-9-(2-{1-[(2-methoxyethoxy)acetyl]piperidin-4-yl}ethyl)-9H-purin-8-yl]thio}-1,3-benzodioxole-5-carbonitrile] |
| 320 | CO[C@@H](C)C(=O)N1CCC(CCn2c(Sc3cc4c(cc3C#N)OCCO4)nc3c(N)ncnc32)CC1 [compound 43, 7-{[6-Amino-9-(2-{1-[(2S)-2-methoxypropanoyl]piperidin-4-yl}ethyl)-9H-purin-8-yl]thio}-2,3-dihydro-1,4-benzodioxine-6-carbonitrile] |
| 300 | CO[C@H](C)C(=O)N1CCC(CCn2c(Sc3cc4c(cc3C#N)OCCO4)nc3c(N)ncnc32)CC1 [compound 44, 7-{[6-Amino-9-(2-{1-[(2R)-2-methoxypropanoyl]piperidin-4-yl}ethyl)-9H-purin-8-yl]thio}-2,3-dihydro-1,4-benzodioxine-6-carbonitrile] |
| 220 | COCC(=O)N1CCC(CCn2c(Sc3cc4c(cc3C#N)OCCO4)nc3c(N)ncnc32)CC1 [compound 45, 7-[(6-Amino-9-{2-[1-(methoxyacetyl)piperidin-4-yl]ethyl}-9H-purin-8-yl)thio]-2,3-dihydro-1,4-benzodioxine-6-carbonitrile] |
| 700 | CS(=O)(=O)N1CCCCC1CCn1c(Sc2cc3c(cc2C#N)OCO3)nc2c(N)ncnc21 (centres unmarked) [compound 46, 6-[(6-Amino-9-{2-[1-(methylsulfonyl)piperidin-2-yl]ethyl}-9H-purin-8-yl)thio]-1,3-benzodioxole-5-carbonitrile] |
| 90 | CS(=O)(=O)N1CCCC(CCn2c(Sc3cc4c(cc3C#N)OCO4)nc3c(N)ncnc32)C1 (centres unmarked) [compound 47, 6-[(6-Amino-9 {2-[1-(methylsulfonyl)piperidin-3-yl]ethyl}-9H-purin-8-yl)thio]-1,3-benzodioxole-5-carbonitrile] |
